pIC50: −log10 of the molar value. Structures can show the parent of a compound that is named as a salt. Values belong to the compound of their own block, whether it stands above or below them.
Assays:
E. cloacae P 99 = assay: microbe, parasite or virus in culture; format: cell-based; conditions: Enterobacter cloacae, P99, 18 h, read-out: MIC of ceftazidime alone
Protocol: (§1) After incubation in Mueller-Hinton Broth (Difco) at 37° C. for 18 h, the bacterial suspension was diluted and about 10^5 CFU/ml was applied to the drug-containing Mueller-Hinton Broth in each well of 96 well plate. The MICs were recorded after 18 h of incubation at 37° C. on the lowest combinations of drug that inhibited visible growth of bacteria.

M. morganii 36010 = assay: MIC of ceftazidime, microbroth dilution; format: cell-based; conditions: Morganella morganii, ceftazidime alone, 18 h
Protocol: as §1, with “The MICs of the antibiotics (e.g., ceftazidime) alone, the MICs of ceftazidime in combination with reference compounds particularly […] (Ref. compd. I) and the MICs of the β-lactamase inhibitors (10 μg/ml) of the present invention in combination with ceftazidime were determined with the same β-lactamase producing bacteria. After” for “After”

P. aeruginosa M2297 = assay: MIC of ceftazidime, microbroth dilution; format: cell-based; conditions: Pseudomonas aeruginosa, ceftazidime alone, 18 h
Protocol: as §1, with “The MICs of the antibiotics (e.g., ceftazidime) alone, the MICs of ceftazidime in combination with reference compounds particularly […] (Ref. compd. I) and the MICs of the β-lactamase inhibitors (10 μg/ml) of the present invention in combination with ceftazidime were determined with the same β-lactamase producing bacteria. After” for “After”

P. aeruginosa 46220 DR-2 = assay: MIC of ceftazidime, microbroth dilution; format: cell-based; conditions: Pseudomonas aeruginosa, 46220DR2; ceftazidime alone, 18 h
Protocol: as §1, with “The MICs of the antibiotics (e.g., ceftazidime) alone, the MICs of ceftazidime in combination with reference compounds particularly […] (Ref. compd. I) and the MICs of the β-lactamase inhibitors (10 μg/ml) of the present invention in combination with ceftazidime were determined with the same β-lactamase producing bacteria. After” for “After”

P. aeruginosa CT-122 = assay: MIC of ceftazidime, microbroth dilution; format: cell-based; conditions: Pseudomonas aeruginosa, CT122; ceftazidime alone, 18 h
Protocol: as §1, with “The MICs of the antibiotics (e.g., ceftazidime) alone, the MICs of ceftazidime in combination with reference compounds particularly […] (Ref. compd. I) and the MICs of the β-lactamase inhibitors (10 μg/ml) of the present invention in combination with ceftazidime were determined with the same β-lactamase producing bacteria. After” for “After”

P. aeruginosa 46017 = assay: MIC of ceftazidime, microbroth dilution; format: cell-based; conditions: Pseudomonas aeruginosa, ceftazidime alone, 18 h
Protocol: as §1, with “The MICs of the antibiotics (e.g., ceftazidime) alone, the MICs of ceftazidime in combination with reference compounds particularly […] (Ref. compd. I) and the MICs of the β-lactamase inhibitors (10 μg/ml) of the present invention in combination with ceftazidime were determined with the same β-lactamase producing bacteria. After” for “After”

P. aeruginosa CT-137 = assay: MIC of ceftazidime, microbroth dilution; format: cell-based; conditions: Pseudomonas aeruginosa, CT137; ceftazidime alone, 18 h
Protocol: as §1, with “The MICs of the antibiotics (e.g., ceftazidime) alone, the MICs of ceftazidime in combination with reference compounds particularly […] (Ref. compd. I) and the MICs of the β-lactamase inhibitors (10 μg/ml) of the present invention in combination with ceftazidime were determined with the same β-lactamase producing bacteria. After” for “After”

P. aeruginosa AU-10 = assay: MIC of ceftazidime, microbroth dilution; format: cell-based; conditions: Pseudomonas aeruginosa, AU10; ceftazidime alone, 18 h
Protocol: as §1, with “The MICs of the antibiotics (e.g., ceftazidime) alone, the MICs of ceftazidime in combination with reference compounds particularly […] (Ref. compd. I) and the MICs of the β-lactamase inhibitors (10 μg/ml) of the present invention in combination with ceftazidime were determined with the same β-lactamase producing bacteria. After” for “After”

[1] = system: P. aeruginosa sp 2439 Wt.; assay: MIC of ceftazidime, microbroth dilution; format: cell-based; conditions: Pseudomonas aeruginosa, SP2439WT.; ceftazidime alone, 18 h
Protocol: as §1, with “The MICs of the antibiotics (e.g., ceftazidime) alone, the MICs of ceftazidime in combination with reference compounds particularly […] (Ref. compd. I) and the MICs of the β-lactamase inhibitors (10 μg/ml) of the present invention in combination with ceftazidime were determined with the same β-lactamase producing bacteria. After” for “After”

P. aeruginosa CT-144 = assay: MIC of ceftazidime, microbroth dilution; format: cell-based; conditions: Pseudomonas aeruginosa, CT144; ceftazidime alone, 18 h
Protocol: as §1, with “The MICs of the antibiotics (e.g., ceftazidime) alone, the MICs of ceftazidime in combination with reference compounds particularly […] (Ref. compd. I) and the MICs of the β-lactamase inhibitors (10 μg/ml) of the present invention in combination with ceftazidime were determined with the same β-lactamase producing bacteria. After” for “After”

P. aeruginosa AU-5 = assay: MIC of ceftazidime, microbroth dilution; format: cell-based; conditions: Pseudomonas aeruginosa, AU5; ceftazidime alone, 18 h
Protocol: as §1, with “The MICs of the antibiotics (e.g., ceftazidime) alone, the MICs of ceftazidime in combination with reference compounds particularly […] (Ref. compd. I) and the MICs of the β-lactamase inhibitors (10 μg/ml) of the present invention in combination with ceftazidime were determined with the same β-lactamase producing bacteria. After” for “After”

[2] = system: P. aeruginosa 46220 DR-2-1; assay: microbe, parasite or virus in culture; format: cell-based; conditions: Pseudomonas aeruginosa, 46220DR21, 18 h, read-out: MIC of ceftazidime alone
Protocol: as §1, with “[…]. After” for “After”

[3] = system: P. aeruginosa PAO 303 carb-4; assay: microbe, parasite or virus in culture; format: cell-based; conditions: Pseudomonas aeruginosa, PAO303CARB4, 18 h, read-out: MIC of ceftazidime alone
Protocol: as §1, with “[…]. After” for “After”

C. freundii CT-76 = assay: MIC of ceftazidime, microbroth dilution; format: cell-based; conditions: Citrobacter freundii, CT76, 18 h, read-out: MIC of ceftazidime alone
Protocol: as §1, with “[…]. After” for “After”

P. aeruginosa AU-8 = assay: MIC of ceftazidime, microbroth dilution; format: cell-based; conditions: Pseudomonas aeruginosa, AU8, 18 h, read-out: MIC of ceftazidime alone
Protocol: as §1, with “[…]. After” for “After”

M. morganii 36014 = assay: MIC of ceftazidime, microbroth dilution; format: cell-based; conditions: Morganella morganii, 36014, 18 h, read-out: MIC of ceftazidime alone
Protocol: as §1, with “[…]. After” for “After”

M. morganii 36030 = assay: MIC of ceftazidime, microbroth dilution; format: cell-based; conditions: Morganella morganii, 36030, 18 h, read-out: MIC of ceftazidime alone
Protocol: as §1, with “[…]. After” for “After”

P. aeruginosa M 1405 = assay: MIC of ceftazidime, microbroth dilution; format: cell-based; conditions: Pseudomonas aeruginosa, M1405, 18 h, read-out: MIC of ceftazidime alone
Protocol: as §1, with “[…]. After” for “After”

P. aeruginosa 46012 = assay: MIC of ceftazidime, microbroth dilution; format: cell-based; conditions: Pseudomonas aeruginosa, 46012, 18 h, read-out: MIC of ceftazidime alone
Protocol: as §1, with “[…]. After” for “After”

E. aerogenes S-95 = assay: MIC of ceftazidime, microbroth dilution; format: cell-based; conditions: Klebsiella aerogenes, S95, 18 h, read-out: MIC of ceftazidime alone
Protocol: as §1, with “[…]. After” for “After”

C. freundii 44032 = assay: MIC of ceftazidime, microbroth dilution; format: cell-based; conditions: Citrobacter freundii, 44032, 18 h, read-out: MIC of ceftazidime alone
Protocol: as §1, with “[…]. After” for “After”

P. aeruginosa L46004 = assay: MIC of ceftazidime, microbroth dilution; format: cell-based; conditions: Pseudomonas aeruginosa, L46004, 18 h, read-out: MIC of ceftazidime alone
Protocol: as §1, with “[…]. After” for “After”

P. aeruginosa AU-1 = assay: MIC of ceftazidime, microbroth dilution; format: cell-based; conditions: Pseudomonas aeruginosa, AU1, 18 h, read-out: MIC of ceftazidime alone
Protocol: as §1, with “[…]. After” for “After”

E. aerogenes 41006 = assay: MIC of ceftazidime, microbroth dilution; format: cell-based; conditions: Klebsiella aerogenes, 41006, 18 h, read-out: MIC of ceftazidime alone
Protocol: as §1, with “[…]. After” for “After”

E. cloacae MNH-2 = assay: MIC of ceftazidime, microbroth dilution; format: cell-based; conditions: Enterobacter cloacae, MNH2, 18 h, read-out: MIC of ceftazidime alone
Protocol: as §1

E. cloacae 40054 = assay: MIC of ceftazidime, microbroth dilution; format: cell-based; conditions: Enterobacter cloacae, 40054, 18 h, read-out: MIC of ceftazidime alone
Protocol: as §1

[4] = molecular target: cephalosporinase from P. aeruginosa (Pseudomonas aeruginosa, UniProt P24735); assay: β-Lactamase inhibitory activity, spectrophotometric rate assay at 490 nm with nitrocefin as substrate; format: biochemical
Chain of cephalosporinase from P. aeruginosa (P24735 27-397): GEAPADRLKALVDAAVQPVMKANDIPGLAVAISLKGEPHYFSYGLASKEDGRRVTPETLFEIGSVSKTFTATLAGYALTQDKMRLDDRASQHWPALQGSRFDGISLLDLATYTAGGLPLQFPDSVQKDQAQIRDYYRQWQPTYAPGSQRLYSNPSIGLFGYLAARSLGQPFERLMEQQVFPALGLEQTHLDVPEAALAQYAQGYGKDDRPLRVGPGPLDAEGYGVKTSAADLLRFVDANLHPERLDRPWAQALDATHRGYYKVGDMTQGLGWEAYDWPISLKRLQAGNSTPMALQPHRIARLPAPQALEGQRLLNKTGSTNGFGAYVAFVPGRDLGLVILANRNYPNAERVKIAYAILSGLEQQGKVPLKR
Protocol: The inhibitory activities of present compounds (β-lactamase inhibitors) against cephalosporinase from P. aeruginosa was measured by spectrophotometric rate assay using 490 nm and using nitrocefin as a substrate (J. Antimicrob. Chemother., vol. 28, pp 775-776, 1991).

β-lactamase = conditions: suggested by several publications; cited from earlier work

SMILES: CC(C)(O/N=C(\C(=O)N[C@@H]1C(=O)N2C(C(=O)[O-])=C(C[n+]3ccccc3)CS[C@H]12)c1csc(N)n1)C(=O)O [ceftazidime]
MIC (E. cloacae P 99): > 32 µg/mL
MIC (M. morganii 36010): > 32 µg/mL
MIC (P. aeruginosa M2297): > 32 µg/mL
MIC (P. aeruginosa 46220 DR-2): 16 µg/mL
MIC (P. aeruginosa CT-122): 16 µg/mL
MIC (P. aeruginosa 46017): > 32 µg/mL
MIC (P. aeruginosa CT-137): 8 µg/mL
MIC (P. aeruginosa AU-10): > 32 µg/mL
MIC [1]: > 32 µg/mL
MIC (P. aeruginosa CT-144): 32 µg/mL
MIC (P. aeruginosa AU-5): > 32 µg/mL
MIC [2]: > 32 µg/mL
MIC [3]: 32 µg/mL
MIC (C. freundii CT-76): > 32 µg/mL
MIC (P. aeruginosa AU-8): > 32 µg/mL
MIC (M. morganii 36014): > 32 µg/mL
MIC (M. morganii 36030): > 32 µg/mL
MIC (P. aeruginosa M 1405): > 32 µg/mL
MIC (P. aeruginosa 46012): > 32 µg/mL
MIC (E. aerogenes S-95): > 32 µg/mL
MIC (C. freundii 44032): > 32 µg/mL
MIC (P. aeruginosa L46004): > 32 µg/mL
MIC (P. aeruginosa AU-1): > 32 µg/mL
MIC (E. aerogenes 41006): > 32 µg/mL
MIC (E. cloacae MNH-2): > 32 µg/mL
MIC (E. cloacae 40054): > 32 µg/mL

pIC50 [4]: 7.10
SMILES: C[C@H]1[C@H](NC(=O)/C(=N/OCC(N)CO)c2cccs2)C(=O)N1S(=O)(=O)O (stereo partly drawn) [Compound 9, (3S)-trans-3-[(E)-2-(2-Thienyl)-2-{1-hydroxy-2-amino-prop-3-oxyimino}acetamido]-4-methyl-2-oxoazetidine-1-sulfonic acid, inner salt]

pIC50 [4]: 6.10
SMILES: C[C@H]1[C@H](NC(=O)/C(=N/OCCN)c2csc(N)n2)C(=O)N1S(=O)(=O)O [Reference Compound II]

pIC50 [4]: 5.96
SMILES: C[C@H]1[C@H](NC(=O)/C(=N/OC(CN)CNC(=N)N)c2cccs2)C(=O)N1S(=O)(=O)O (some centres unmarked) [Compound 12]

pIC50 [4]: 7.10
SMILES: C[C@H]1[C@H](NC(=O)/C(=N/OCCNCCN)c2cccs2)C(=O)N1S(=O)(=O)O [Compound 7]

pIC50 [4]: 6.52
SMILES: C[C@H]1[C@H](NC(=O)/C(=N/OC(CN)CO)c2cccs2)C(=O)N1S(=O)(=O)O (some centres unmarked) [Compound 8]

SMILES: C[C@H]1[C@H](NC(=O)/C(=N\OC(C)(C)C(=O)O)c2csc(N)n2)C(=O)N1S(=O)(=O)O [Reference Compound I, Aztreonam]
β-lactamase inhibitory properties (β-lactamase): possesses β-lactamase inhibitory properties
pIC50 [4]: 6.89

pIC50 [4]: 6.40
SMILES: C[C@H]1[C@H](NC(=O)/C(=N/OC(CN)CN)c2cccs2)C(=O)N1S(=O)(=O)O [Compound 3, (3S)-trans-3-[(E)-2-(2-Thienyl)-2-{1,3-diamino-prop-2-oxyimino}acetamido]-4-methyl-2-oxoazetidine-1-sulfonic acid, triflate salt]

pIC50 [4]: 6.70
SMILES: CC(CN)O/N=C(/C(=O)N[C@@H]1C(=O)N(S(=O)(=O)O)[C@H]1C)c1cccs1 (some centres unmarked) [Compound 11]

pIC50 [4]: 7.00
SMILES: C[C@H]1[C@H](NC(=O)/C(=N/OC[C@H](N)CCN)c2cccs2)C(=O)N1S(=O)(=O)O [Compound 6]

pIC50 [4]: 7.70
SMILES: C[C@H]1[C@H](NC(=O)/C(=N/OCCN)c2cccs2)C(=O)N1S(=O)(=O)O [Compound 1]

pIC50 [4]: 7.00
SMILES: C[C@H]1[C@H](NC(=O)/C(=N/OC[C@@H](N)CCN)c2cccs2)C(=O)N1S(=O)(=O)O [Compound 5]

pIC50 [4]: 7.70
SMILES: C[C@H]1[C@H](NC(=O)/C(=N/OCCCN)c2cccs2)C(=O)N1S(=O)(=O)O [Compound 2]

pIC50 [4]: 7.19
SMILES: C[C@H]1[C@H](NC(=O)/C(=N/OCC(N)CN)c2cccs2)C(=O)N1S(=O)(=O)O (some centres unmarked) [Compound 4]

pIC50 [4]: 7.10
SMILES: CC(N)CO/N=C(/C(=O)N[C@@H]1C(=O)N(S(=O)(=O)O)[C@H]1C)c1cccs1 (stereo partly drawn) [Compound 10, (3S)-trans-3-[(E)-2-(2-Thienyl-2-{(2-amino)-prop-1-oxyimino}acetamido]-4-methyl-2-oxoazetidine-1-sulfonic acid, inner salt]
